Results reported in patent publication US12642270B2, “Substituted thiophene carboxamides, thiophene carboxylic acids and derivatives thereof” (Bayer Aktiengesellschaft, priority 2019, dated 2026).

Assay: Log P by HPLC on reversed phase columns (EEC directive 79/831 Annex V.A8)
Assay type: physicochemical
How it was run: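 Values come from retention times calibrated against alkan-2-ones (3–16 carbons) by linear interpolation, using reversed-phase LC-UV per EEC directive 79/831 Annex V.A8. Acetonitrile gradient 10–95% with 0.1% formic acid [a], 0.001 M ammonium acetate [b] or 0.1% phosphoric acid [c]; several values within one method separated by "+".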

[1] = method [a], compounds of formula (I), Table 1.1
[2] = method [a]: LC-UV, acidic range, 0.1% formic acid in water and acetonitrile
[3] = method marker [a] given with each value, Table 1.1, compounds of formula (I)
[4] = LogP method [a], compounds of formula (I), Table 1.1

With `COC(=O)C(C)(C)NC(=O)c1sc(C#N)c(Cl)c1Br` [1.0668] the LogP (method marked [a]) was 2.90^[a].

With `COC(=O)[C@H](CC(N)=O)NC(=O)c1sc(Br)c(Br)c1F` [1.0160] the LogP (method [a]) was 1.94^[a].

In the case of `COC(=O)CNC(=O)c1sc(Br)c(Br)c1C(F)(F)F` [1.0366], the LogP (method marked [a]) was 2.71^[a].

For `COC(=O)CNC(=O)c1sc(Cl)c(Br)c1F` [1.0635], the LogP (method [a]) was 2.49^[a].

With `CCOC(=O)C1(NC(=S)c2sc(Cl)c(Br)c2Cl)CCC1` [1.0853] the LogP (method [a]) was 5.04^[a].

For `C=CCOC(=O)C1(NC(=O)c2sc(Cl)c(Cl)c2C#N)CC1` [1.0913], the LogP (method [a]) was 2.91^[a].

With `COC(=O)C1(NC(=O)c2sc(Cl)c(Br)c2C)CC1` [1.0165] the LogP (method [a]) was 2.80^[a].

With `COC(=O)[C@H](CCSC)NC(=O)c1sc(C#N)c(Br)c1C` [1.0729] the LogP (method marked [a]) was 3.03^[a].

For `Cc1c(C(=O)NCC#N)sc(Cl)c1Br` [1.0105], the LogP [1] was 2.58^[a].

For `O=C(NC(CO)C(=O)O)c1sc(Br)c(Br)c1F` (centres unmarked) [1.0228], the LogP (method [a]) was 1.77^[a].

In the case of `COC(=O)C(C)(C)NC(=O)c1sc(Cl)c(Br)c1F` [1.0637], the LogP (method [a]) was 3.27^[a].

In the case of `Cc1c(C(=O)NC2(C(=O)O)CC2)sc(C#N)c1Br` [1.0250], the LogP (method [a]) was 1.84^[a].

In the case of `COC(=O)CNC(=O)c1cc(Br)c(C(F)(F)F)s1` [1.0716], the LogP (method marked [a]) was 2.65^[a].

In the case of `CCOC(=O)C(CCSC)NC(=O)c1sc(Cl)c(Br)c1C` (centres unmarked) [1.0070], the LogP [1] was 3.99^[a].

For `O=C(NC1CCOC1=O)c1sc(Br)c(Br)c1C(F)F` (centres unmarked) [I.1066], the LogP [2] was 2.46^[a].

For `CCOC(=O)C1(NC(=O)c2sc(Br)c(Br)c2C#N)CSC1` [1.1051], the LogP [3] was 3.15^[a].

With `N#CNC(=O)C1(NC(=O)c2sc(Br)c(Br)c2F)CC1` [1.0895] the LogP (method [a]) was 2.38^[a].

For `CCOC(=O)C1(NC(=O)c2cc(Br)c(Cl)s2)CCC1` [1.0439], the LogP [4] was 3.44^[a].

With `CC(C)(C)OC(=O)C1(NC(=O)c2sc(Cl)c(Cl)c2Br)CC(F)(F)C1` [1.0614] the LogP (method [a]) was 4.83^[a].

With `CCOC(=O)CNC(=O)c1sc(C#N)c(Br)c1Cl` [1.0604] the LogP (method [a]) was 2.63^[a].

For `O=C(CNC(=O)c1sc(Br)c(Br)c1Cl)OCC1CC1` [1.0985], the LogP [3] was 3.79^[a].

In the case of `COC(=O)[C@H](CSC(=O)N(C)C)NC(=O)c1sc(Br)c(Br)c1F` [1.0533], the LogP (method [a]) was 3.27^[a].

In the case of `C#CCOC(=O)CNC(=O)c1sc(C#N)c(Cl)c1Cl` [1.0911], the LogP (method [a]) was 2.63^[a].

For `CCOC(=O)C(NC(=O)c1cc(C#N)c(Br)s1)C(C)C` (centres unmarked) [1.0403], the LogP [4] was 3.22^[a].

For `CCOC(=O)CNC(=O)c1sc(I)c(Br)c1C` [1.0096], the LogP [1] was 3.02^[a].

For `COC(=O)CNC(=S)c1sc(Cl)c(Br)c1Cl` [1.0485], the LogP [4] was 4.08^[a].

In the case of `CCOC(=O)[C@H](CO)NC(=O)c1sc(Cl)c(Br)c1C` [1.0842], the LogP (method [a]) was 2.62^[a].

For `NC(=O)C1(NC(=O)c2sc(Br)c(Br)c2Cl)CC1` [1.0787], the LogP (method marked [a]) was 2.10^[a].

With `O=C(NC(C(=O)OCc1ccccc1)C1CC1)c1sc(Br)c(Br)c1F` (centres unmarked) [1.0619] the LogP (method [a]) was 4.63^[a].

In the case of `CCOC(=O)C(CCSC)NC(=O)c1sc(I)c(Br)c1C` (centres unmarked) [1.0103], the LogP [1] was 3.96^[a].

With `CCOC(=O)C(C#N)NC(=O)c1sc(Br)c(Br)c1F` (centres unmarked) [1.0257] the LogP (method [a]) was 3.07^[a].

For `CCOC(=O)C(Cc1ccccc1)NC(=O)c1sc(Cl)c(Br)c1Br` (centres unmarked) [1.0217], the LogP (method [a]) was 5.04^[a].

In the case of `CCOC(=O)C(CO)NC(=O)c1sc(Br)c(Br)c1Cl` (centres unmarked) [1.0779], the LogP (method marked [a]) was 2.89^[a].

In the case of `CC(C)OC(=O)C1(NC(=O)c2sc(Br)c(Br)c2Cl)CCC1` [1.0616], the LogP (method [a]) was 4.71^[a].

For `COC(=O)CNC(=O)c1sc(Br)c(Br)c1F` [1.0527], the LogP [4] was 2.52^[a].

In the case of `CCOC(=O)C(Cc1ccccc1)NC(=O)c1sc(C#N)c(Cl)c1C` (centres unmarked) [1.0306], the LogP (method marked [a]) was 3.77^[a].

For `COC(=O)c1sc(Br)c(Cl)c1Br` [II.071], the LogP [2] was 4.01^[a].

In the case of `CCOC(=O)C(CCSC)NC(=O)c1sc(Cl)c(Cl)c1F` (centres unmarked) [1.0351], the LogP (method marked [a]) was 3.95^[a].

In the case of `Cc1c(C(=O)NC(C#N)Cc2ccccc2)sc(Cl)c1Br` (centres unmarked) [1.0110], the LogP [1] was 3.99^[a].

In the case of `Cc1c(C(=O)NC2(C(N)=O)CC2)sc(C#N)c1Br` [1.0789], the LogP (method marked [a]) was 1.61^[a].

In the case of `CCOC(=O)C(NC(=O)c1sc(C(F)F)c(Br)c1Br)C(C)C` (centres unmarked) [1.0514], the LogP [4] was 4.30^[a].
